The nature of this data set: CO release through pig ear skin. The data set is classed as in vitro ADME. As to the method:
Pig ear skin was purchased from a butcher and prepared immediately after delivery. Skin was carefully removed from the remaining fat and cartilage. Subsequent to the preparation, the skin was clamped between the top and bottom compartment of the test cell. Sealing was ensured by screw clamps and a sealing ring (FIG. 5A).
For the experiment 15 mg of tri-sodium Beck-1 ((Mo(CO)3(CNCH2CO2Na)3) were placed in the bottom compartment of the test cell and dissolved in 4 mL H2O. CO release was activated by adding 1 mL of iron(III)chloride solution (350 mg/mL) to the tri-sodium Beck-1. CO release through the pig skin was measured over a time period of 1000 minutes.
The data shown in FIG. 6 illustrates that CO release trough the pig skin is a slow process and reaches plateau in the raw data at around 500 minutes and stays at that plateau of 200 ppm CO for another 500 minutes until the end of the experiment. A plateau in the raw data means that the sensor consumption of CO is at the same rate as the release through the skin. To correct for the sensor consumption, CO release data of tri-sodium Beck-1 without any limiting membranes were used to calculate the consumption rate of the sensor.

Experimental findings from patent US12622880B2, “Therapeutic system for the topical, transdermal and transcutaneous application of carbon monoxide” (Julius-Maximilians-Universitaet Wuerzburg, priority 2020, dated 2026) are described below.

Molecules are shown by their SMILES.

Regarding `[C-]#[O+]` [CO, carbon monoxide], the “CO release through the pig skin, maximum in the corrected data” value (15 mg tri-sodium Beck-1 activated with iron(III)chloride, at 1000 minutes, corrected for sensor consumption of CO) was determined as 340 ppm. Moreover, the “CO release through the pig skin, plateau in the raw data” value (15 mg tri-sodium Beck-1 in 4 mL H2O activated with 1 mL iron(III)chloride solution (350 mg/mL), averaged raw data (n=2), plateau held until 1000 minutes) was 200 ppm. For the setting “15 mg tri-sodium Beck-1 in 4 mL H2O activated with 1 mL iron(III)chloride solution (350 mg/mL), raw data”, the “time at which CO release through the pig skin reaches plateau in the raw data” value was “around 500 minutes”.
